# Measured values from paper PMC5218480 (PLoS ONE, 2017).
# Tested on: MV-4-11 cells
# Assay: Gene expression microarray analysis (Affymetrix PrimeView) and GSEA
# Assay type: cell-based, human
# Parameters: RFU PODN (11730768_x_at) / Fold change /veh PODN (11730768_x_at) / RFU LINC00158 (11744669_a_at) / Fold change /veh LINC00158 (11744669_a_at) / RFU DUSP10 (11751237_a_at) / Fold change /veh DUSP10 (11751237_a_at) / RFU ID3 (11757404_x_at) / Fold change /veh ID3 (11757404_x_at) / RFU PLEKHG5 (11737974_s_at) / Fold change /veh PLEKHG5 (11737974_s_at) / RFU LRRC4B (11730491_at) / Fold change /veh LRRC4B (11730491_at) / RFU GIMAP4 (11747438_a_at) / Fold change /veh GIMAP4 (11747438_a_at) / RFU KRT8 (11758183_x_at) / Fold change /veh KRT8 (11758183_x_at) / RFU CNN1 (11734310_a_at) / Fold change /veh CNN1 (11734310_a_at) / RFU VPS37D (11726825_at) / Fold change /veh VPS37D (11726825_at) / RFU C10orf10 (11716522_x_at) / Fold change /veh C10orf10 (11716522_x_at) / RFU KIR2DL2 /// KIR2DL4 /// KIR2DL5A /// KIR2DL5B /// KIR2DS1 /// KIR2DS2 /// KIR2DS3 /// KIR2DS4 /// KIR3DL3 /// KIR3DL3 /// KIR3DS1 (11738374_at) / Fold change /veh KIR2DL2 /// KIR2DL4 /// KIR2DL5A /// KIR2DL5B /// KIR2DS1 /// KIR2DS2 /// KIR2DS3 /// KIR2DS4 /// KIR3DL3 /// KIR3DL3 /// KIR3DS1 (11738374_at) / RFU C1QL1 (11718748_at) / Fold change /veh C1QL1 (11718748_at) / RFU TMPRSS4 (11747572_a_at) / Fold change /veh TMPRSS4 (11747572_a_at) / RFU HAMP (11756126_x_at) / Fold change /veh HAMP (11756126_x_at) / RFU RNFT2 (11725882_a_at) / Fold change /veh RNFT2 (11725882_a_at) / RFU NR4A2 (11747474_a_at) / Fold change /veh NR4A2 (11747474_a_at) / RFU ABCC12 (11746883_a_at) / Fold change /veh ABCC12 (11746883_a_at) / RFU TMEM136 (11760407_x_at) / Fold change /veh TMEM136 (11760407_x_at) / RFU CLDN22 /// WWC2 (11732394_at) / Fold change /veh CLDN22 /// WWC2 (11732394_at) / RFU HLA-DPB1 (11760878_x_at) / Fold change /veh HLA-DPB1 (11760878_x_at) / RFU SPINT1 (11716480_a_at) / Fold change /veh SPINT1 (11716480_a_at) / RFU GAP43 (11754022_s_at) / Fold change /veh GAP43 (11754022_s_at) / RFU A4GNT (11735810_at) / Fold change /veh A4GNT (11735810_at) / RFU PRB3 (11715151_x_at) / Fold change /veh PRB3 (11715151_x_at) / RFU TUBB4B (11761932_at) / Fold change /veh TUBB4B (11761932_at) / RFU CAPN14 (11732068_a_at) / Fold change /veh CAPN14 (11732068_a_at) / RFU TMCC2 (11721928_a_at) / Fold change /veh TMCC2 (11721928_a_at) / RFU IRGQ (11745062_a_at) / Fold change /veh IRGQ (11745062_a_at) / RFU FAM174B (11720279_a_at) / Fold change /veh FAM174B (11720279_a_at) / RFU TMPRSS4 (11748680_a_at) / Fold change /veh TMPRSS4 (11748680_a_at) / RFU FAM212B (11763350_a_at) / Fold change /veh FAM212B (11763350_a_at) / RFU PLEKHG5 (11743358_a_at) / Fold change /veh PLEKHG5 (11743358_a_at) / RFU ZSCAN30 (11745921_a_at) / Fold change /veh ZSCAN30 (11745921_a_at) / RFU CMKLR1 (11741424_a_at) / Fold change /veh CMKLR1 (11741424_a_at) / RFU LOC101060620 /// MAPK8IP1 (11723275_at) / Fold change /veh LOC101060620 /// MAPK8IP1 (11723275_at) / RFU SPTSSB (11747773_x_at) / Fold change /veh SPTSSB (11747773_x_at) / RFU PRSS12 (11739890_at) / Fold change /veh PRSS12 (11739890_at) / RFU BIN1 (11741810_x_at) / Fold change /veh BIN1 (11741810_x_at) / RFU WNT11 (11732464_a_at) / Fold change /veh WNT11 (11732464_a_at) / RFU C10orf10 (11716521_a_at) / Fold change /veh C10orf10 (11716521_a_at) / RFU C5orf56 (11738089_at) / Fold change /veh C5orf56 (11738089_at) / RFU CYB561 (11721691_x_at) / Fold change /veh CYB561 (11721691_x_at) / RFU ANKRD19P (11752326_a_at) / Fold change /veh ANKRD19P (11752326_a_at) / RFU OR2T12 /// OR2T33 /// OR2T8 (11738714_s_at) / Fold change /veh OR2T12 /// OR2T33 /// OR2T8 (11738714_s_at) / RFU VCAN (11748164_a_at) / Fold change /veh VCAN (11748164_a_at) / RFU JSRP1 (11732532_at) / Fold change /veh JSRP1 (11732532_at) / RFU KRTAP10-11 (11738290_x_at) / Fold change /veh KRTAP10-11 (11738290_x_at) / RFU MYO3A (11730013_a_at) / Fold change /veh MYO3A (11730013_a_at) / RFU EBF3 (11725865_a_at) / Fold change /veh EBF3 (11725865_a_at) / RFU CAMK2N1 (11719241_x_at) / Fold change /veh CAMK2N1 (11719241_x_at) / RFU C5orf56 (11738088_a_at) / Fold change /veh C5orf56 (11738088_a_at) / RFU OLFML3 (11715873_a_at) / Fold change /veh OLFML3 (11715873_a_at) / RFU LOC100653217 /// NTM (11731650_a_at) / Fold change /veh LOC100653217 /// NTM (11731650_a_at) / RFU MAPK11 (11762145_a_at) / Fold change /veh MAPK11 (11762145_a_at) / RFU FIZ1 (11724087_x_at) / Fold change /veh FIZ1 (11724087_x_at) / RFU OASL (11726364_x_at) / Fold change /veh OASL (11726364_x_at) / RFU SOX15 (11748057_x_at) / Fold change /veh SOX15 (11748057_x_at) / RFU CD79A (11719716_a_at) / Fold change /veh CD79A (11719716_a_at) / RFU HIST1H1D (11736915_at) / Fold change /veh HIST1H1D (11736915_at) / RFU CASKIN2 (11723855_a_at) / Fold change /veh CASKIN2 (11723855_a_at) / RFU LOC730098 (11760151_x_at) / Fold change /veh LOC730098 (11760151_x_at) / RFU OR4N2 (11742367_at) / Fold change /veh OR4N2 (11742367_at) / RFU PRRT2 (11749266_a_at) / Fold change /veh PRRT2 (11749266_a_at) / RFU SNX32 (11753110_a_at) / Fold change /veh SNX32 (11753110_a_at) / RFU CDHR5 (11726645_a_at) / Fold change /veh CDHR5 (11726645_a_at) / RFU RCAN1 (11760418_a_at) / Fold change /veh RCAN1 (11760418_a_at) / RFU FAM167A (11723789_a_at) / Fold change /veh FAM167A (11723789_a_at) / RFU FAM26E (11764081_at) / Fold change /veh FAM26E (11764081_at) / RFU ISYNA1 (11749810_s_at) / Fold change /veh ISYNA1 (11749810_s_at) / RFU ACY1 (11761880_at) / Fold change /veh ACY1 (11761880_at) / RFU 11764098_at / Fold change /veh 11764098_at / RFU SAMD14 (11745864_x_at) / Fold change /veh SAMD14 (11745864_x_at) / RFU NPB (11741838_a_at) / Fold change /veh NPB (11741838_a_at) / RFU TMPRSS6 (11731388_a_at) / Fold change /veh TMPRSS6 (11731388_a_at) / RFU KRTAP10-2 (11738614_at) / Fold change /veh KRTAP10-2 (11738614_at) / RFU ARHGAP8 /// PRR5-ARHGAP8 (11727945_x_at) / Fold change /veh ARHGAP8 /// PRR5-ARHGAP8 (11727945_x_at) / RFU KRTAP5-7 /// NADSYN1 (11734609_at) / Fold change /veh KRTAP5-7 /// NADSYN1 (11734609_at) / RFU RASL12 (11751679_a_at) / Fold change /veh RASL12 (11751679_a_at) / RFU CDKN2B (11736163_a_at) / Fold change /veh CDKN2B (11736163_a_at) / RFU PRF1 (11729649_at) / Fold change /veh PRF1 (11729649_at) / RFU, ZNF638 /// ZNF638-IT1 / Fold change vs veh, ZNF638 /// ZNF638-IT1 / RFU, PANK3 / Fold change vs veh, PANK3 / RFU, SH3YL1 / Fold change vs veh, SH3YL1 / RFU, ZEB2 / Fold change vs veh, ZEB2 / RFU, NRIP1 / Fold change vs veh, NRIP1 / RFU, PTTG1IP / Fold change vs veh, PTTG1IP / RFU, CAPN2 / Fold change vs veh, CAPN2 / RFU, MED14 / Fold change vs veh, MED14 / RFU, SNORA58 / Fold change vs veh, SNORA58 / RFU, C1orf63 / Fold change vs veh, C1orf63 / RFU, LRRFIP1 / Fold change vs veh, LRRFIP1 / RFU, NDUFAF7 / Fold change vs veh, NDUFAF7 / RFU, SLC12A2 / Fold change vs veh, SLC12A2 / RFU, IBTK / Fold change vs veh, IBTK / RFU, ESF1 / Fold change vs veh, ESF1 / Fold change vs veh, TMEM50B / RFU, TAOK1 / Fold change vs veh, TAOK1 / RFU, ACBD3 / Fold change vs veh, ACBD3 / RFU, TMA16 / Fold change vs veh, TMA16 / RFU, RWDD3 / Fold change vs veh, RWDD3 / RFU, BCAT1 / Fold change vs veh, BCAT1 / RFU, EDEM3 / Fold change vs veh, EDEM3 / RFU, TMEM33 / Fold change vs veh, TMEM33 / RFU, WDR75 / Fold change vs veh, WDR75 / RFU, AHCTF1 / Fold change vs veh, AHCTF1 / RFU, TFRC / Fold change vs veh, TFRC / RFU, ZDHHC17 / Fold change vs veh, ZDHHC17 / RFU, NOM1 / Fold change vs veh, NOM1 / RFU, ARL8B / Fold change vs veh, ARL8B / RFU, ZBTB11 / Fold change vs veh, ZBTB11 / RFU, TAMM41 / Fold change vs veh, TAMM41 / RFU, KIAA1704 /// LOC100996395 / Fold change vs veh, KIAA1704 /// LOC100996395 / RFU, ING1 / Fold change vs veh, ING1 / RFU, TRMT61B / Fold change vs veh, TRMT61B / RFU, FUBP3 / Fold change vs veh, FUBP3 / RFU, TP53 / Fold change vs veh, TP53 / RFU, TNKS2 / Fold change vs veh, TNKS2 / RFU, ZFP14 / Fold change vs veh, ZFP14 / RFU, ACTR2 / Fold change vs veh, ACTR2 / RFU, PPP3R1 / Fold change vs veh, PPP3R1 / RFU, PIK3R1 / Fold change vs veh, PIK3R1 / RFU, HNRNPA1 / Fold change vs veh, HNRNPA1 / RFU, RNF170 / Fold change vs veh, RNF170 / RFU, ZNF28 / Fold change vs veh, ZNF28 / RFU, RNGTT / Fold change vs veh, RNGTT / RFU, OGT / Fold change vs veh, OGT / RFU, BRD1 / Fold change vs veh, BRD1 / RFU, MARS / Fold change vs veh, MARS / RFU, ZNF655 / Fold change vs veh, ZNF655 / RFU, FAHD1 / Fold change vs veh, FAHD1 / RFU, BDP1 / Fold change vs veh, BDP1 / RFU, LRRCC1 / Fold change vs veh, LRRCC1 / RFU, ARID1A / Fold change vs veh, ARID1A / RFU, ZNF146 / Fold change vs veh, ZNF146 / RFU, ZNF330 / Fold change vs veh, ZNF330 / RFU, GPN3 / Fold change vs veh, GPN3 / RFU, C9orf123 / Fold change vs veh, C9orf123 / RFU, N4BP2L2 / Fold change vs veh, N4BP2L2 / RFU, ARFIP1 / Fold change vs veh, ARFIP1 / RFU, FAM179B / Fold change vs veh, FAM179B / RFU, BCL10 / Fold change vs veh, BCL10 / RFU, UHRF1BP1L / Fold change vs veh, UHRF1BP1L / RFU, BET1 / Fold change vs veh, BET1 / RFU, CNOT2 / Fold change vs veh, CNOT2 / RFU, ZNF268 / Fold change vs veh, ZNF268 / Fold change vs veh, ZNF507 / RFU, DGCR2 / Fold change vs veh, DGCR2 / RFU, WDSUB1 / Fold change vs veh, WDSUB1 / Fold change vs veh, HSP90B1 /// MIR3652 / RFU, ADSS / Fold change vs veh, ADSS / RFU, GK / Fold change vs veh, GK / RFU, ZNF148 / Fold change vs veh, ZNF148 / RFU, TAF9 / Fold change vs veh, TAF9 / RFU, SLC1A5 / Fold change vs veh, SLC1A5 / RFU, SLMO2 / Fold change vs veh, SLMO2 / RFU, ABCC4 / Fold change vs veh, ABCC4 / RFU, LOC101060439 /// RAP1B / Fold change vs veh, LOC101060439 /// RAP1B / RFU, RFX7 / Fold change vs veh, RFX7 / RFU, GTPBP10 / Fold change vs veh, GTPBP10 / RFU, CNEP1R1 / Fold change vs veh, CNEP1R1 / RFU, BIVM-ERCC5 /// ERCC5 / Fold change vs veh, BIVM-ERCC5 /// ERCC5 / RFU, ILF3 / Fold change vs veh, ILF3 / RFU 11762660_at / Fold change /veh 11762660_at / RFU VCAN (11757783_s_at) / Fold change /veh VCAN (11757783_s_at) / RFU DDX43 (11728927_at) / Fold change /veh DDX43 (11728927_at) / RFU KRT8 (11758188_x_at) / Fold change /veh KRT8 (11758188_x_at) / RFU NKD1 (11759106_at) / Fold change /veh NKD1 (11759106_at) / RFU SRD5A1 (11742802_a_at) / Fold change /veh SRD5A1 (11742802_a_at) / RFU TPSAB1 /// TPSB2 (11721975_s_at) / Fold change /veh TPSAB1 /// TPSB2 (11721975_s_at) / RFU GSTM3 (11746129_a_at) / Fold change /veh GSTM3 (11746129_a_at) / RFU IL23R (11737362_x_at) / Fold change /veh IL23R (11737362_x_at) / RFU TMEM51 (11727254_a_at) / Fold change /veh TMEM51 (11727254_a_at) / RFU PIWIL2 (11732686_x_at) / Fold change /veh PIWIL2 (11732686_x_at) / RFU ORM1 (11744905_x_at) / Fold change /veh ORM1 (11744905_x_at) / RFU CCDC152 (11743942_at) / Fold change /veh CCDC152 (11743942_at) / RFU ECM1 (11717891_a_at) / Fold change /veh ECM1 (11717891_a_at) / RFU IL23R (11748794_a_at) / Fold change /veh IL23R (11748794_a_at) / RFU TNFAIP8L3 (11732012_x_at) / Fold change /veh TNFAIP8L3 (11732012_x_at) / RFU MBOAT4 (11741988_at) / Fold change /veh MBOAT4 (11741988_at) / RFU 11764193_at / Fold change /veh 11764193_at / RFU TMEM53 (11763286_at) / Fold change /veh TMEM53 (11763286_at) / RFU MAGEB2 (11727129_at) / Fold change /veh MAGEB2 (11727129_at) / RFU TMEM200A (11744735_a_at) / Fold change /veh TMEM200A (11744735_a_at) / RFU CCDC152 (11751479_a_at) / Fold change /veh CCDC152 (11751479_a_at) / RFU FAM211A (11726209_a_at) / Fold change /veh FAM211A (11726209_a_at) / RFU RGS16 (11746705_a_at) / Fold change /veh RGS16 (11746705_a_at) / RFU VCAN (11755009_s_at) / Fold change /veh VCAN (11755009_s_at) / RFU RHOB (11743442_s_at) / Fold change /veh RHOB (11743442_s_at) / RFU RGS16 (11720943_a_at) / Fold change /veh RGS16 (11720943_a_at) / RFU RGS16 (11720944_at) / Fold change /veh RGS16 (11720944_at) / RFU, VPS4B / Fold change vs veh, VPS4B / RFU, CREB1 / Fold change vs veh, CREB1 / RFU, DNAJC13 / Fold change vs veh, DNAJC13 / RFU, GNAQ / Fold change vs veh, GNAQ / RFU, CDK5R1 / Fold change vs veh, CDK5R1 / RFU, ZRANB3 / Fold change vs veh, ZRANB3 / RFU, CUL4A / Fold change vs veh, CUL4A / RFU, CCNY / Fold change vs veh, CCNY / RFU, UFL1 / Fold change vs veh, UFL1 / RFU, COG3 / Fold change vs veh, COG3 / RFU, DIAPH2 / Fold change vs veh, DIAPH2 / RFU, SKA2 / Fold change vs veh, SKA2 / RFU, AFF3 / Fold change vs veh, AFF3 / RFU, LMF1 / Fold change vs veh, LMF1 / RFU, IPO11 / Fold change vs veh, IPO11 / RFU, DFFB / Fold change vs veh, DFFB / RFU, FOXP1 / Fold change vs veh, FOXP1 / RFU, CARD8 / Fold change vs veh, CARD8 / RFU, STRN3 / Fold change vs veh, STRN3 / RFU, ADK / Fold change vs veh, ADK / RFU, RASSF2 / Fold change vs veh, RASSF2 / RFU, WIPF1 / Fold change vs veh, WIPF1 / RFU, LARP1B / Fold change vs veh, LARP1B / RFU, RASA1 / Fold change vs veh, RASA1 / RFU, RB1 / Fold change vs veh, RB1 / RFU, PPFIA1 / Fold change vs veh, PPFIA1 / RFU, MAT2A / Fold change vs veh, MAT2A / RFU, CCT5 / Fold change vs veh, CCT5 / RFU, WDR92 / Fold change vs veh, WDR92 / RFU, CUX1 / Fold change vs veh, CUX1 / RFU, TTC7A / Fold change vs veh, TTC7A / RFU, TMEM135 / Fold change vs veh, TMEM135 / RFU, DEPTOR / Fold change vs veh, DEPTOR / RFU, CPM / Fold change vs veh, CPM / RFU, DNAJB6 / Fold change vs veh, DNAJB6 / RFU, CACNA2D3 / Fold change vs veh, CACNA2D3 / RFU, DTX4 / Fold change vs veh, DTX4 / RFU, TFCP2 / Fold change vs veh, TFCP2 / RFU, GMCL1 /// GMCL1P1 / Fold change vs veh, GMCL1 /// GMCL1P1 / RFU, AEBP2 / Fold change vs veh, AEBP2 / RFU, SNHG1 /// SNORD22 /// SNORD25 /// SNORD26 /// SNORD27 /// SNORD28 /// SNORD29 /// SNORD31 / Fold change vs veh, SNHG1 /// SNORD22 /// SNORD25 /// SNORD26 /// SNORD27 /// SNORD28 /// SNORD29 /// SNORD31 / Fold change (Aza/veh), C12orf56 (ProbeSet 11735607_a_at) / Fold change (ACY-1035/veh), C12orf56 (ProbeSet 11735607_a_at) / Fold change (Aza/veh), FGFR1OP (ProbeSet 11751329_s_at) / Fold change (ACY-1035/veh), FGFR1OP (ProbeSet 11751329_s_at) / Fold change (Aza/veh), VPS36 (ProbeSet 11739960_a_at) / Fold change (ACY-1035/veh), VPS36 (ProbeSet 11739960_a_at) / RFU SYPL1 (11715823_x_at) / Fold change /veh SYPL1 (11715823_x_at) / RFU IGFBP7 (11715501_s_at) / Fold change /veh IGFBP7 (11715501_s_at) / RFU REEP3 (11722064_at) / Fold change /veh REEP3 (11722064_at) / RFU IGLL1 (11728026_x_at) / Fold change /veh IGLL1 (11728026_x_at): dose or concentration left out as unconfirmed
# Settings: MV-4-11 cells, 48 hours
smiles,measurement,value
Nc1ccc(-c2cccs2)cc1NC(=O)c1ccc2c(c1)cc(C1CC1)n2CCN1CCOCC1 [ACY-1035],Fold change /veh RGS16 (11746705_a_at),1.06
